Experimental data published in the supplement of paper PMC13380429.

How the values were obtained:
Settings in all cases: 72 h
HepG2 [1] = assay: relative viability EC50 (midpoint between 100% and the lowest measured viability); higher = less toxic
U2OS [2] = assay: as above
Calu-3 [3] = assay: as above
Caco-2 [4] = assay: as above
HepG2 [5] = assay: drug sensitivity score (DSS) for viability; higher = more toxic; extreme values may be limits of the assay
U2OS [6] = assay: as above
Calu-3 [7] = assay: as above
Caco-2 [8] = assay: as above
HepG2 [9] = assay: cell viability relative to DMSO; higher = less toxic
U2OS [10] = assay: as above
Calu-3 [11] = assay: as above
Caco-2 [12] = assay: as above
Vero E6 [13] = assay: relative viability EC50 (midpoint between 100% and the lowest measured viability); higher = less toxic
Vero E6 [14] = assay: drug sensitivity score (DSS) for viability; higher = more toxic; extreme values may be limits of the assay
Vero E6 [15] = assay: cell viability relative to DMSO; higher = less toxic

| SMILES | relative viability EC50 (HepG2 [1]) | relative viability EC50 (U2OS [2]) | relative viability EC50 (Calu-3 [3]) | relative viability EC50 (Caco-2 [4]) | drug sensitivity score (HepG2 [5]) | drug sensitivity score (U2OS [6]) | drug sensitivity score (Calu-3 [7]) | drug sensitivity score (Caco-2 [8]) | cell viability (HepG2 [9]; 1 nM) | cell viability (HepG2 [9]; 10 nM) | cell viability (HepG2 [9]; 100 nM) | cell viability (HepG2 [9]; 1000 nM) | cell viability (HepG2 [9]; 10000 nM) | cell viability (U2OS [10]; 1 nM) | cell viability (U2OS [10]; 10 nM) | cell viability (U2OS [10]; 100 nM) | cell viability (U2OS [10]; 1000 nM) | cell viability (U2OS [10]; 10000 nM) | cell viability (Calu-3 [11]; 1 nM) | cell viability (Calu-3 [11]; 10 nM) | cell viability (Calu-3 [11]; 100 nM) | cell viability (Calu-3 [11]; 1000 nM) | cell viability (Calu-3 [11]; 10000 nM) | cell viability (Caco-2 [12]; 1 nM) | cell viability (Caco-2 [12]; 10 nM) | cell viability (Caco-2 [12]; 100 nM) | cell viability (Caco-2 [12]; 1000 nM) | cell viability (Caco-2 [12]; 10000 nM) | relative viability EC50 (Vero E6 [13]) | drug sensitivity score (Vero E6 [14]) | cell viability (Vero E6 [15]; 1 nM) | cell viability (Vero E6 [15]; 10 nM) | cell viability (Vero E6 [15]; 100 nM) | cell viability (Vero E6 [15]; 1000 nM) | cell viability (Vero E6 [15]; 10000 nM) |
| --- | --- | --- | --- | --- | --- | --- | --- | --- | --- | --- | --- | --- | --- | --- | --- | --- | --- | --- | --- | --- | --- | --- | --- | --- | --- | --- | --- | --- | --- | --- | --- | --- | --- | --- | --- |
| C=C(C)[C@@H]1CC[C@]2(C(=O)O)CC[C@]3(C)[C@H](CC[C@@H]4[C@@]5(C)CC[C@H](O)C(C)(C)[C@@H]5CC[C@]43C)[C@@H]12 [betulinic-acid] | > 10 µM | > 10 µM | > 10 µM | > 10 µM | 0 | 0 | 0 | 0 | 109% | 97.4% | 114% | 101% | 113% | 101% | 101% | 98% | 99% | 95% | 93.1% | 97.9% | 93% | 106% | 100% | 102% | 108% | 92.3% | 112% | 102% | – | – | – | – | – | – | – |
| O=c1[nH]c(=O)n([C@H]2C[C@H](O)[C@@H](CO)O2)cc1/C=C/Br [brivudine] | – | > 10 µM | – | > 10 µM | – | 0 | – | 0 | – | – | – | – | – | 94.4% | 98.5% | 94.5% | 104% | 98% | – | – | – | – | – | 97% | 111% | 104% | 109% | 100% | – | – | – | – | – | – | – |
| C=C1CC/C=C(\C)CC[C@@H]2[C@@H]1CC2(C)C [g-caryophyllene] | > 10 µM | > 10 µM | – | > 10 µM | 0 | 0 | – | 0.2 | 105% | 95.5% | 113% | 104% | 94.9% | 92.8% | 101% | 95.3% | 99.9% | 99% | – | – | – | – | – | 109% | 112% | 97.3% | 121% | 80.6% | > 10 µM | 0 | 103% | 89.3% | 104% | 94.8% | 100% |
| N#Cc1ccnc(N2C(=O)CC[C@H]2C(=O)N(c2cncc(F)c2)[C@H](C(=O)NC2CC(F)(F)C2)c2ccccc2Cl)c1 [ivosidenib] | > 10 µM | > 10 µM | > 10 µM | > 10 µM | 0 | 0 | 0 | 0 | 97.5% | 97.7% | 95.1% | 106% | 98.7% | 104% | 100% | 104% | 101% | 98.3% | 98.8% | 109% | 93.7% | 104% | 97.3% | 105% | 97.6% | 94.2% | 93% | 104% | – | – | – | – | – | – | – |
